In paper PMC3404106, “Pharmacology of DB844, an Orally Active aza Analogue of Pafuramidine, in a Monkey Model of Second Stage Human African Trypanosomiasis” (PLoS Neglected Tropical Diseases, 2012):
Several values for one entry are separate records, joined by “and”; a condition that tells them apart may be missing. Equal entries are not always repeated. Entries after “also recorded” stand apart in the source; their conditions may differ.

Tests used:
[1] = Metabolism of DB844 in vervet monkey liver microsomes; assay type: in vitro ADME; details: 10 µM DB844, 0.2 mg/ml male vervet monkey liver microsomes
Method: The metabolism of DB844 was investigated using liver microsomes, prepared from a male vervet monkey by XenoTech, LLC (Lenexa, KS), in the presence of NADPH as described previously with modifications. Briefly, incubation mixtures (1 ml at pH7.4, in triplicate) contained 10 µM DB844 and 0.2 mg/ml monkey liver microsomes. After a 5-min equilibration period at 37°C, reactions were initiated with the addition of NADPH. Aliquots (50 µl) of the reaction mixtures were removed at 0, 5, 10, 15, 30, 60, 90, and 120 min and mixed with 25 µl of ice-cold acetonitrile. The mixtures were centrifuged (10,000×g for 5 min at 4°C) and the supernatants were analyzed by HPLC/UV using the same method as previously described for DB289 [22]. […] DB844 and metabolites were quantified using a single-concentration calibration curve generated using synthetic standards.

[2] = test system: GVR35 CNS model of HAT; set-up: method as in PMID 19620327; details: cited from earlier work
[3] = Safety monitoring (clinical, haematology, clinical chemistry) in infected DB844-treated monkeys; assay type: in vivo, vervet monkey; details: for RBC / Haematocrit / Hemoglobin / Mean corpuscular haemoglobin / Mean corpuscular volume / Platelet counts / WBC counts: infected monkeys
Method: Haematology samples (1 ml) were analysed using an AC^3diffT Coulter Counter (Miami, Florida, USA). Clinical chemistries were determined using a Humalyzer analyser system. Finally, plasma and CSF were analyzed for drug and metabolite concentrations using an HPLC-tandem Mass Spectrometry (HPLC-MS/MS) procedure as described below.

[4] = Toxicity study of 10-day oral DB844 regimens in uninfected monkeys
[5] = Pharmacokinetics (plasma and CSF) in infected monkeys after last DB844 dose
[6] = test system: Trypanosoma brucei rhodesiense KETRI 2537; assay: Efficacy in vervet monkey model of second stage HAT; assay type: in vivo; details: for TOC test at 300 days post last dose / EoT test at 1 day post last dose (trypanosomes in blood/CSF) / EoT test at 4 days post last dose (trypanosomes in blood/CSF): individual monkeys; for EoT test at 1 day post last dose (trypanosomes in blood/CSF) / EoT test at 4 days post last dose (trypanosomes in blood/CSF): Neg/Pos
From the text: A pleomorphic isolate, T.b rhodesiense KETRI 2537, a derivative of EATRO 1989 that was isolated from a patient in Uganda by direct inoculation of blood and lymph node aspirate into a monkey and later cryopreserved at KARI- TRC [18], was used. This isolate is the basis of the KETRI vervet monkey and mouse models and has been widely used for drug efficacy trials, [20].
Sixteen vervet monkeys in two groups of eight monkeys each (four males and four females) were used. After a 14-day baseline weight, clinical and haematology data collection period, the sixteen monkeys were infected by intravenous injection of approximately 10^4 trypanosomes diluted from infected blood of immuno-suppressed donor Swiss white mice. Parasitaemia post infection was determined by examination of wet film of ear prick blood and/or examination of buffy coat after centrifugation of blood collected in a heparinised capillary tube as described previously. Parasitaemia in wet film was estimated using the rapid matching method of Herbert and Lumsden. In addition, monkeys were confirmed to be in second stage disease by detection of trypanosomes in the CSF with or without elevated white cell counts above 5 cells/µl, [20], [21], [23]. At 28 days post infection (DPI), the animals were treated with DB844 via oral gavage at 5 mg/kg qd×10 days (group I, n = 8) or 6 mg/kg qd×14 days (group II, n = 8), utilising a dose volume of 1 ml/kg. The monkeys were examined for parasitaemia every day during drug treatment and then twice weekly until ≥300 days post dosing, at which point monkeys were considered cured if they remained clinically normal and parasite-free as determined below.

[7] = infected monkeys after oral DB844 treatment, days post last dose
[8] = DB844 6 mg/kg×14 days, 41 DPI (0 days post last dose)
[9] = DB844 6 mg/kg×14 days, 48 DPI (7 days post last dose)
[10] = DB844 6 mg/kg×14 days, 69 DPI (28 days post last dose)
[11] = DB844 6 mg/kg×14 days, 104 DPI (63 days post last dose)
[12] = uninfected monkeys, DB844 5 mg/kg×10 days orally, monkeys 572F, 582M
[13] = uninfected monkeys, DB844 10 mg/kg×10 days orally, monkeys 541F, 578M, 10 mg/kg
[14] = uninfected monkeys, DB844 10 mg/kg×10 days orally, monkeys 541F, 578M, parenthesis = days post first dose when observed, 10 mg/kg
[15] = vervet 578, 10 mg/kg×10 days orally, uninfected
[16] = plasma, after the 14th oral dose of DB844 at 6 mg/kg, n = 7, geometric mean, analyte = label
[17] = group I: DB844 5 mg/kg×10 days per os, 28–37 DPI, 5 mg/kg
[18] = group II: DB844 6 mg/kg×14 days per os, 28–41 DPI, 6 mg/kg
[19] = relapsed monkeys of both groups

CONC(=N)c1ccc(-c2ccc(-c3ccc(C(=N)NOC)cn3)o2)cc1 [DB844, N-methoxy-6-{5-[4-(N-methoxyamidino)phenyl]-furan-2-yl}-nicotinamidine]
metabolites formed over a 120 min incubation period [1]: at least seven
half-life at 10 µM ([1]; pH 7.4, NADPH, 37°C, pH7.4, read-out: microsomal half-life): ~0.233 h
cure of 2nd stage experimental murine HAT infection ([2]; DB844 at 100 mg/kg): curative
animals cured ([2]; mice, oral DB844 (100 mg/kg×5 days)): 5/5
mean plasma ALT at its peak ([3]; group II, 6 mg/kg, after 7 daily drug doses (34 DPI), baseline 4.5±0.9 IU): 13.6±3.8 IU
alkaline phosphatase change during and after drug administration ([3]; group II, 6 mg/kg×14 days): no significant changes
plasma creatinine change from baseline ([3]; group II, 6 mg/kg×14 days): not significant
total bilirubin and direct bilirubin changes ([3]; group II, 6 mg/kg×14 days): none of the changes were statistically significant
increase of mean plasma AST above baseline ([3]; group II, 6 mg/kg×14 days, 24 hours post dosing): 3.3 times
mean (± SE) plasma AST ([3]; group II, 6 mg/kg×14 days, 24 hours post dosing, baseline 37.0±4.8 IU): 121±21.6 IU
blood urea nitrogen (BUN) as indicator of renal function ([3]; group II, 6 mg/kg×14 days, from 48 h post dosing (43 DPI)): mild and reversible decrease in kidney function
increases in plasma transaminases (AST and ALT) ([3]; group II, efficacy study): 2–3 fold
time to reversal of transaminase elevations after the last drug dose ([3]; group II, efficacy study): 4 to 7 days
time to re-establishment of baseline RBC associated parameters [3, 7]: 28 to 63 days
time to re-establishment of baseline platelet parameters [3, 7]: within seven
drug related haematology changes ([3]; infected monkeys treated with oral DB844 (5 and 6 mg/kg)): no drug related haematology changes; also recorded: No DB844-related haematological aberrations
RBC ([3]; DB844 6 mg/kg×14 days (28–41 DPI), 41 DPI (0 days post last dose)): 4.8±0.3, p<0.0001 ×10^6/µl
Haematocrit [3, 8]: 31.6±1.6, p<0.0001%
Hemoglobin [3, 8]: 11.2±0.7, p<0.0001 g/dl
Mean corpuscular haemoglobin [3, 8]: 23.0±0.3 p<0.008 g/dl
Mean corpuscular volume [3, 8]: 65.3±0.9, p = 0.0001 fl
Platelet counts [3, 8]: 406.5±22.5 p = 0.05 ×10^3/µl
WBC counts [3, 8]: 7.1±1.0, p = 0.12 ×10^3/µl
Haematocrit [3, 9]: 31.8±1.6, p<0.0001%
Hemoglobin [3, 9]: 11.5±0.6, p<0.0001 g/dl
Mean corpuscular haemoglobin [3, 9]: 23.3±0.4 p = 0.07 g/dl
Mean corpuscular volume [3, 9]: 64.8±0.9, p = 0.0001 fl
Platelet counts [3, 9]: 390.7±32.4, p = 0.11 ×10^3/µl
RBC [3, 9]: 4.9±0.2, p<0.004 ×10^6/µl
WBC counts [3, 9]: 5.6±1.2, p = 0.9 ×10^3/µl
Haematocrit [3, 10]: 43.8±1.6, p = 0.91%
Hemoglobin [3, 10]: 12.8±0.5, p = 0.15 g/dl
Mean corpuscular haemoglobin [3, 10]: 23.4±0.6, p = 0.13 g/dl
Mean corpuscular volume [3, 10]: 79.8±1.4, p = 0.11 fl
Platelet counts [3, 10]: 332.2±11.9, p = 0.78 ×10^3/µl
RBC [3, 10]: 5.5±0.2, p = 0.55 ×10^6/µl
WBC counts [3, 10]: 5.9±0.8, p = 0.8 ×10^3/µl
Haematocrit [3, 11]: 46.7±2.7, p = 0.91%
Hemoglobin [3, 11]: 14.1±0.8, p = 0.11 g/dl
Mean corpuscular haemoglobin [3, 11]: 23.3±0.5 p = 0.21 g/dl
Mean corpuscular volume [3, 11]: 77.0±1.5, p = 0.21 fl
Platelet counts [3, 11]: 294.3±17.4 p = 0.55 ×10^3/µl
RBC [3, 11]: 6.1±0.3 p = 0.02 ×10^6/µl
WBC counts [3, 11]: 5.1±0.1, p = 0.4 ×10^3/µl
monkeys in which no adverse clinical signs of toxicity were elicited ([4]; uninfected monkeys, 5 mg/kg/day orally for 10 days): 2/2
monkeys with overt toxicity ([4]; uninfected monkeys, 10 mg/kg/day orally for 10 days): 1/2
monkeys with overt toxicity ([4]; uninfected monkeys, 20 mg/kg/day orally (8 doses given)): 2/2
weight loss (maximum among adverse clinical events) ([4]; uninfected monkeys, 5, 10 or 20 mg/kg/day orally): up to 10.5%
Adverse clinical events: GIT changes [4, 12]: None
Adverse clinical events: Jaundice [4, 12]: None
Adverse clinical events: Reduced feed intake [4, 12]: None
Daily doses completed [4, 12]: 10/10
Euthanised due to toxicity [4, 12]: No
% weight loss ([4]; uninfected monkeys, DB844 5 mg/kg×10 days orally, monkeys 572F, 582M, 5 mg/kg): 1.8% and 4.9%
Daily doses completed ([4]; uninfected monkeys, DB844 10 mg/kg×10 days orally, monkeys 541F, 578M): 10/10
% weight loss [4, 13]: 4.6% and 10.5%
Adverse clinical events: Jaundice [4, 13]: None and yes
Adverse clinical events: GIT changes [4, 14]: None and Yes (16)
Adverse clinical events: Reduced feed intake [4, 14]: Yes (11); also recorded: Yes (14)
Euthanised due to toxicity ([4]; uninfected monkeys, DB844 10 mg/kg×10 days orally, monkeys 541F, 578M, parenthesis = days post first dose, 10 mg/kg): No and Yes (16)
Adverse clinical events: Jaundice ([4]; uninfected monkeys, DB844 20 mg/kg×10 days orally, monkeys 543F, 606M): yes
% weight loss ([4]; uninfected monkeys, DB844 20 mg/kg×10 days orally, monkeys 543F, 606M, 20 mg/kg): 9.1% and 6.5%
Daily doses completed ([4]; uninfected monkeys, DB844 20 mg/kg×10 days orally, monkeys 543F, 606M, dosing withdrawn on overt toxicity): 8/10
Adverse clinical events: GIT changes ([4]; uninfected monkeys, DB844 20 mg/kg×10 days orally, monkeys 543F, 606M, parenthesis = days post first dose when observed): Yes (8)
Adverse clinical events: Reduced feed intake ([4]; uninfected monkeys, DB844 20 mg/kg×10 days orally, monkeys 543F, 606M, parenthesis = days post first dose when observed, 20 mg/kg): Yes (8); also recorded: Yes (9)
Euthanised due to toxicity ([4]; uninfected monkeys, DB844 20 mg/kg×10 days orally, monkeys 543F, 606M, parenthesis = days post first dose, 20 mg/kg): Yes (9); also recorded: Yes (10)
monkeys in which the dose was well tolerated ([4]; uninfected monkeys, middle dose 10 mg/kg×10 days): 1/2
mean corpuscular volume (MCV) after rise from 76.6 [4, 15]: 86.9 fL
red cell distribution width (RDW) after rise from 15 [4, 15]: 18.4
rise in mean corpuscular volume (MCV) [4, 15]: 13%
rise in red cell distribution width (RDW) [4, 15]: 23%
detection in CSF after the 1 h post dose sample ([5]; after last dose of DB844 6 mg/kg×14 days): not detected thereafter
concentration at 1 h ([5]; monkey, CSF, oral, 6 mg/kg): 17 nM
half-life ([5]; monkey, in vivo, po, 6 mg/kg): 5.8 h
CL/F ([5]; monkey, plasma, po, 6 mg/kg): 167 mL/min/kg
half-life ([5]; monkey, plasma, po, 6 mg/kg): 5.76 h
Tmax ([5]; monkey, plasma, po, 6 mg/kg, Tmax, plasma, after the 14th oral dose of DB844 at 6 mg/kg, n = 7, median, analyte = label): 0.96 h
Tmax ([5]; monkey, plasma, po, 6 mg/kg, time of peak plasma concentration, after the last (14th) dose of DB844 at 6 mg/kg, analyte = label): 1 h
AUC(0-∞) [5, 16]: 70 nmol·days/L
AUClast [5, 16]: 68 nmol·days/L
EoT provisional cure rate at 4 days post dosing ([6]; both groups (5 mg/kg×10 days and 6 mg/kg×14 days)): 100%
overall cure rate ([6]; both study groups): approximately 40%
trypanosomes in the blood or cerebrospinal fluid at end of treatment evaluation ([6]; four days post the last drug dose, any monkey): not detected
TOC test at 300 days post last dose [6, 17]: Cured; also recorded: Relapsed
EoT test at 1 day post last dose (trypanosomes in blood/CSF) [6, 17]: Neg and Pos
EoT test at 4 days post last dose (trypanosomes in blood/CSF) [6, 17]: neg and Neg
TOC test at 300 days post last dose [6, 18]: Cured; also recorded: Relapsed
EoT test at 4 days post last dose (trypanosomes in blood/CSF) ([6]; group II: DB844 6 mg/kg×14 days per os, 28–41 DPI): Neg
EoT test at 1 day post last dose (trypanosomes in blood/CSF) [6, 18]: Neg and Pos
cure rate in the vervet monkey model of 2nd stage HAT ([6]; oral DB844, best of the two regimens): up to 43%
median (range) time to trypanosome recrudescence in CSF [6, 19]: 133 (35–322, n = 9) days and 133 days
median (range) time to trypanosome recrudescence in blood [6, 19]: 261 (239–322, n = 3) days and 261 days
